This note sets out measurements from patent US9629822B2, “Flavonoid based antiviral targets” (UNIVERSITY OF CENTRAL FLORIDA RESEARCH FOUNDATION, INC., priority 2012, dated 2017).

“Also recorded” adds a separate entry of the source. Like-named read-outs stand apart in the source and are kept apart here.

A short description of series [1]: TZMbI assay for cell safety (cell viability and growth, CytoTox Glo). To be noted: human, TZMbI cells, read-out: % decrease in viability compared to 0.1% DMSO vehicle based on viable cell luminescence. How it is done:
Assays were performed below in accordance with the procedures set forth in The Journal of Immunology, 2006, 176, pp. 6900-905; AIDS Research and Human Retroviruses, 2004, 20:11, pp. 1157-1665.^32,33 TZMbI assays for cell safety were performed to identify potential anti-viral compounds. TZMbI assays for cell safety were performed to identify potential anti-viral compounds per the methods.

Another series relates to HIV-1 BaL. Put plainly: Anti-HIV assay (luciferase, HIV-1 BaL infection). It counts as cell-based. How it is done:
Assays were performed below in accordance with the procedures set forth in The Journal of Immunology, 2006, 176, pp. 6900-905; AIDS Research and Human Retroviruses, 2004, 20:11, pp. 1157-1665.^32,33 Cells were treated with 2 ng/mL p24 of HIV-1 BaL administered; MOI approx 0.02 (see refs 32, 33). Cells were treated with 2 ng/mL p24 of HIV-1 BaL administered; MOI approx 0.02 (see refs 32, 33).

The next series addresses T1, US28 receptor (Human cytomegalovirus, UniProt P69332).
T1 construct: expressed in transfected cells; host or cells: HEK 293T cells, transiently transfected
The series is described as follows: PathDetect trans Elk1 luciferase reporter gene assay in US28-transfected 293T HEK cells. Format: cell-based, Human Cytomegalovirus (HCMV). As to conditions: for Emax: read-out: Efficacy(%), maximum intrinsic activity from dose-response curve; for Emax / Efficacy(%): negative = inverse agonism; for Efficacy(%): maximum intrinsic activity from dose-response curve. The text has this: Having generated a homologous series of chalcones and flavones, their ability to interact with the US28 receptor in human embryonic kidney (HEK) cells was investigated using an Elk-1 gene reporter assay (FIG. 2). HEK cells were transfected with either an empty vector (i.e., mock cells) or with a vector carrying US 28. These matched HEK cells provided a means to evaluate off-target effects as well as innate drug toxicity. As many of the flavonoid drugs were not water-soluble, all drug stock solutions were made in 100% dimethylsulfoxide (DMSO). The final DMSO concentration for each cell-based experiment, however, was 1% DMSO. To account for the presence of DMSO, 1% DMSO controls were run in parallel. […] values of the homologous series were also determined in Chinese hamster ovary (CHO) cells in order to assess the relative toxicities of each member of the series in a different cell line (see Table 1).
Interaction with the US28 receptor was measured by a decrease in luminescence using a firefly (Photinus pyralis) luciferase-based PathDetect Elk1 gene reporter assay (FIG. 2).^23,24 This assay assessed the modulation of US28-mediated activation of mitogen-activated protein kinase (MAPK) signaling pathways (results are shown in Table 1). […] Such compounds which reduce MAPK signaling will have direct utility in the treatment of proliferative disorders including but not limited cancer.
After transfection the US28 is expressed and activates MAPK. The MAPK phosphorylates the activator domain of the GAL4dbd/Elk1 fusion protein, and causes its dimerization. The dimer then binds to the GAL4 UAS region of the reporter gene and allows for luciferase transcription. The luciferase mRNA is then translated and the luciferase protein is detected via luminescence by the use of the Bright-Glo reagent.
(§1) The efficacy of each compound on the US28 receptor was investigated in luciferase based reporter gene assay PathDetect trans Elk1 (Agilent, Stratagene)^23 as described previously.^13 Briefly, the human embryonic kidney (HEK) 293T cells were transiently-transfected with 0.1 μg Elk1, 5 μg Luc, and 5 μg of US28 vector or empty pcDNA3 vector (mock cells). Five hours after transfection, the cells were washed with DMEM containing 1% FBS, harvested, seeded in a white half-area 96-well plate (20,000 cells/well) and incubated with the indicated concentrations of test compounds. The incubation buffer consisted of DMEM, 1% FBS, 2 mM L-glutamine, 1% penicillin-streptomycin and 1% DMSO. The cells were incubated at 37° C. in the humid atmosphere with 5% CO2 for an additional 20-24 hours. The luciferase substrate BrightGlo (Promega) was used according to the manufacturer's instruction. The luminescence intensity was acquired using microplate reader Victor3V (Perkin-Elmer). The basal luminescence of mock transfected cells was approximately 500 RLU and the basal luminescence of US28-transfected cells was 4-5-fold higher (2000-2500 RLU). As the inhibitors gave differential responses in terms of their ability to reduce US 28 mediated signaling, their relative EC50 values were determined by dosing the US-28 transfected HEK cells with increasing concentrations of each compound. In this case, the EC50 value is the concentration of the compound needed to provoke a response halfway between the compound's maximal response (change in luminescence) and the no-compound control in the same US-28 transfected cell line. A plot of relative luminescence versus log of the compound concentration provided a dose-response curve from which the % efficacy was derived via non-linear regression methods using the algorithms in PRISM 5.0 (GraphPad Software, San Diego, Calif.).
(Reporter assays use an easily measured gene product as a stand-in for the process of interest.)

In series [2] the test system is mock transfected 293T HEK cells. The series is described as follows: PathDetect Elk1 luminescence in mock transfected (empty pcDNA3 vector) 293T HEK cells, off-target effect. Format: cell-based, human. How it is done: As a control, the empty pcDNA3 plasmid vector and the components of PathDetect system were also used for mock transfection of 293T HEK cells. Controls containing 1% DMSO were run in parallel. The relative luminescence results found with mock transfected 293T HEK cells treated with 10 μM drug and the untreated 1% DMSO control were compared via the following Equation 1. % Effect on mock cells=(100%×(mock cell luminescence/DMSO control luminescence))−100% Equation (1)
This equation was derived in order to assess the net effect each compound had on non-US28 containing HEK cells transfected via the same protocol. These control experiments were critical as they provided a method to address off target effects such as compound toxicity, which could give rise to false positives in the PathDetect assay.
Compounds, which had no off-target effects, gave nearly identical luminescence values in both the mock cells and the 1% DMSO control (i.e., a mock cell luminescence/DMSO control luminescence ratio of 1) and a net effect of 0% via Equation 1 (e.g., 9j: 0% in Table 1). In contrast, compounds that were stimulatory to the treated HEK cells gave higher mock cell luminescence than the DMSO control, a ratio >1, and a net positive value in Equation 1 for the % effect on mock cells (e.g., 8f: 290%). On the other hand, compounds that were intrinsically toxic gave lower luminescence in the treated mock cells than the DMSO control, a ratio below 1, and a net negative value for the % effect on mock cells (e.g., 8d: ˜42%).
as §1

For the next series, the system named is CHO cells. Put plainly: CHO cell toxicity, MTS assay, 48 h. To be noted: 37° C., MTS reagent; for IC50: Cricetulus griseus, CHO, read-out: CHO 48 h IC50 value. Format: cell-based, Chinese hamster. How it is done:
In each case, the chalcone system 8 was more toxic than the corresponding ring-closed system, 9.
The CHO assay was conducted to assess the general toxicity of each flavonoid drug. Briefly, cell growth was assayed in sterile 96-well microtiter plates (Costar 3599, Corning, N.Y., USA) in the presence of each drug. Experiments were conducted in triplicate. CHO cells were plated at 10,000 cells/mL. Drug solutions were prepared in 100% DMSO and dosed so that the final DMSO concentration was <1%. For example, 1 μL of drug solution was added to the CHO cells plated in each well in 100 μL of media. Drug additions occurred after an initial overnight incubation of CHO cells in each well. After drug was added, the cells were incubated in 5% CO2 for 48 h at 37° C. The MTS reagent (Promega Cell Titer 96 Aqueous non-radioactive cell proliferation reagent) was added (20 μL) and the CHO cells were incubated for an additional 4h and then absorbance at 490 nm was measured on a BioTek Synergy MX plate reader. […] IC50 values were determined from the corresponding plot of relative absorbance at 490 nm vs drug concentration.
Background: Tetrazolium assays rely on reduction of a dye to a coloured formazan, in cell work by metabolically active cells.

[3] abbreviates: EC50 (μM), 293T HEK cells transiently expressing US28, Elk1 reporter, NE = no effect when tested at 10 μM of compound.
The mark [4] stands for this setting: 10 μM, Experiment 1B, 2 ng/mL p24 HIV-1 BaL.
Setting [5] is: Human immunodeficiency virus 1, BAL, 10 μM, Experiment 1B, 2 ng/mL p24 HIV-1 BaL.

T1 sequence (P69332 whole entry): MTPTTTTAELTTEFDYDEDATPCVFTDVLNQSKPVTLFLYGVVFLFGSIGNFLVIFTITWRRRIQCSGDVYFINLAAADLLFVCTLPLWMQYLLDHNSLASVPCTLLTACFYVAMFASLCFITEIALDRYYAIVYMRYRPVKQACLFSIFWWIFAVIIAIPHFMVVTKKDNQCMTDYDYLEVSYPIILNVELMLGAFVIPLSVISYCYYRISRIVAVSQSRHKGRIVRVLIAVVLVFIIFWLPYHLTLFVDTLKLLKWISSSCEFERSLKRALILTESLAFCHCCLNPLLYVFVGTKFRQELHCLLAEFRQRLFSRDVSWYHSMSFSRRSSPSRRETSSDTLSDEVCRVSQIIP

As for `CC[C@H](C)[C@@H]1NC(=O)CNC(=O)[C@H](CCCCN)NC(=O)CNC(=O)[C@@H]2CSSC[C@H](NC1=O)C(=O)N[C@@H](CCCNC(=N)N)C(=O)N[C@H]1CSSC[C@H](NC(=O)[C@H](CCCNC(=N)N)NC(=O)[C@@H]3CSSC[C@H](NC(=O)[C@H]([C@@H](C)CC)NC1=O)C(=O)NCC(=O)N[C@@H](CCCNC(=N)N)C(=O)NCC(=O)N[C@@H]([C@@H](C)CC)C(=O)N3)C(=O)N[C@@H]([C@@H](C)CC)C(=O)N2` [RC-101, reference compound], in series [1] (Experiment 2A), the cytotoxicity at 10 μM was -1.43%. Further, in the series on HIV-1 BaL (10 μM, Experiment 2B), the “Mean % Inhibition of Infection” value is on record as 99.38% and the “RLU (relative luciferase units)” value turned out to be 1.67 RLU.
Compound `CCOc1ccc(Br)cc1/C=C/C(=O)c1ccccc1O` [Compound 8c, (E)-3-(5-bromo-2-ethoxyphenyl)-1-(2-hydroxyphenyl)prop-2-en-1-one] displayed an EC50 at US28 receptor (setting [3]) of 5 µM. The Emax on US28 receptor was ~88%. The cytotoxicity at 10 μM in series [1] (Experiment 1A) is 53.3%. Also, in series [2] (Homo sapiens, 10 μM vs 1% DMSO control, Equation 1, read-out: Effect(%) on mock cells with each drug at 10 μM), the activation at 10 µM was -3%. Further, the “RLU (relative luciferase units)” value with HIV-1 BaL (setting [4]) was determined as 112.3 RLU. The inhibition at 10 µM in the series with HIV-1 BaL (setting [5]) is 88.1%. Moreover, the IC50 in the series on CHO cells is 7.2 ± 0.5 µM.
As for `COc1ccc(Br)cc1/C=C/C(=O)c1ccccc1O` [Compound 8b, (E)-3-(5-Bromo-2-methoxyphenyl)-1-(2-hydroxyphenyl)prop-2-en-1-one], on US28 receptor (setting [3]), the EC50 was 7.8 µM. Moreover, at US28 receptor, the “Efficacy(%)” value is on record as ~44% and the Emax is ~44%. The cytotoxicity at 10 μM in series [1] (Experiment 1A) is 64.2%. Moreover, the “RLU (relative luciferase units)” value with HIV-1 BaL (setting [4]) was 202.3 RLU. Further, the inhibition at 10 µM with HIV-1 BaL (setting [5]) is 78.6%. Besides, in the series on CHO cells, the IC50 was found to be 8.7 ± 0.3 µM.
In the case of `COc1ccc(Br)cc1-c1cc(=O)c2c(OCc3ccccc3)cccc2o1` [Compound 11b, 5-(Benzyloxy)-2-(5-bromo-2-methoxyphenyl)-4H-chromen-4-one], at US28 receptor (Elk1 reporter, US28-transfected HEK cells), the “type of activity on the US28 receptor (agonist / inverse agonist / none), in words” value was “strong inverse agonism activity; also recorded: full inverse agonist”. Besides, the “Efficacy(%)” value at US28 receptor is on record as −89%. The same compound gave an EC50 at US28 receptor (pEC50 ± SEM, 293T HEK cells transiently expressing US28, Elk1 reporter) of 3.47 µM. Besides, at US28 receptor, the Emax was -89%. Also, in series [1] (5 μM, Experiment 2A), the cytotoxicity at 5 μM is -6.17%. The cytotoxicity at 10 μM was 6.4% in series [1] (Experiment 1A) and -5.05% in series [1] (Experiment 2A). The cytotoxicity at 20 μM in series [1] (20 μM, Experiment 2A) was -18.1%. Besides, the cytotoxicity at 40 μM in series [1] (40 μM, Experiment 2A) is -29.2%. The cytotoxicity at 80 μM in series [1] (80 μM, Experiment 2A) is -1.51%. The “RLU (relative luciferase units)” value with HIV-1 BaL (5 μM, Experiment 2B) was found to be 24.27 RLU; in the series with HIV-1 BaL (setting [4]), 781.6 RLU; in the series with HIV-1 BaL (10 μM, Experiment 2B) it was 34.09 RLU; with HIV-1 BaL (20 μM, Experiment 2B) it was 40.47 RLU; in the series with HIV-1 BaL (40 μM, Experiment 2B), 49.22 RLU; in the series with HIV-1 BaL (80 μM, Experiment 2B) it was 62.68 RLU. For the same compound, the inhibition at 5 µM with HIV-1 BaL (Human immunodeficiency virus 1, BAL, 5 μM, Experiment 2B) was -6.17%. The inhibition at 10 µM in the series with HIV-1 BaL (setting [5]) was 16.5%; in the series on HIV-1 BaL (Human immunodeficiency virus 1, BAL, 10 μM, Experiment 2B) it was -15.1%. In the series with HIV-1 BaL (Human immunodeficiency virus 1, BAL, 20 μM, Experiment 2B), the inhibition at 20 µM is -18.1%. In the series on HIV-1 BaL (Human immunodeficiency virus 1, BAL, 40 μM, Experiment 2B), the inhibition at 40 µM is -29.2%. For the same compound, in the series with HIV-1 BaL (Human immunodeficiency virus 1, BAL, 80 μM, Experiment 2B), the inhibition at 80 µM is -1.51%. The “CHO 48 h IC50 value (μM)” value with CHO cells is on record as “high CHO IC50 value; also recorded: essentially non-toxic; also recorded: not toxic”. Moreover, the IC50 in the series with CHO cells is 96.6 µM.
On US28 receptor (setting [3]), `COc1ccccc1-c1cc(=O)c2c(OCc3ccccc3)cccc2o1` [Compound 11a, 5-(Benzyloxy)-2-(2-methoxyphenyl)-4H-chromen-4-one] returned an EC50 of 7.3 µM. Moreover, the half-maximal inhibitory concentration (IC50) with CHO cells came out at 17.5 ± 1.9 µM.
For `COc1ccccc1/C=C/C(=O)c1c(O)cccc1OCc1ccccc1` [Compound 8k, (E)-1-(2-(Benzyloxy)-6-hydroxyphenyl)-3-(2-methoxyphenyl)prop-2-en-1-one], the “EC50 (μM)” value on US28 receptor (293T HEK cells transiently expressing US28, Elk1 reporter, NE = no effect when tested at 10 μM of compound) was “Toxic”. Further, the “toxicity at 10 μM in HEK cells, in words” value in series [2] (10 μM) is recorded as “very toxic”. Further, the “Effect(%) on mock cells with each drug at 10 μM” value in series [2] (10 μM vs 1% DMSO control, Equation 1) is reported as “Toxic”.

What is called EC50 is the concentration that produces a half-maximal response. In general, inhibition refers to the relative decrease from the control value, in per cent. Usually IC50 stands for the concentration that gives 50% inhibition.
